Laboratory results taken from PubChem BioAssay (NCI).
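In this assay, cells in 96-well plates receive the compound at five concentrations for 48 hours. Endpoints are linearly interpolated between the surrounding concentrations. GI50 = concentration required for 50% inhibition of growth. TGI: concentration producing complete growth inhibition.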

How the values were obtained:
Test in all cases: NCI tumour cell line growth inhibition, 48 h; in the data active = GI50 below about 0.43 µM; inactive = the rest
786-0 renal = test system: 786-0 renal
A498 renal = test system: A498 renal
A549 NSCLC = test system: A549 NSCLC
ACHN renal = test system: ACHN renal
BT-549 breast = test system: BT-549 breast
CAKI-1 renal = test system: CAKI-1 renal
CCRF-CEM leukemia = test system: CCRF-CEM leukemia
COLO 205 colon = test system: COLO 205 colon
DU-145 prostate = test system: DU-145 prostate
EKVX NSCLC = test system: EKVX NSCLC
HCT-116 colon = test system: HCT-116 colon
HCT-15 colon = test system: HCT-15 colon
HL-60(TB) leukemia = test system: HL-60(TB) leukemia
HOP-62 NSCLC = test system: HOP-62 NSCLC
HOP-92 NSCLC = test system: HOP-92 NSCLC
HS 578T breast = test system: HS 578T breast
HT29 colon = test system: HT29 colon
IGROV1 ovarian = test system: IGROV1 ovarian
K-562 leukemia = test system: K-562 leukemia
KM12 colon = test system: KM12 colon
LOX IMVI melanoma = test system: LOX IMVI melanoma
M14 melanoma = test system: M14 melanoma
MALME-3M melanoma = test system: MALME-3M melanoma
MCF7 breast = test system: MCF7 breast
MDA-MB-231 breast = test system: MDA-MB-231 breast
MDA-MB-435 = test system: MDA-MB-435
MOLT-4 leukemia = test system: MOLT-4 leukemia
NCI-H226 lung = test system: NCI-H226 lung
NCI-H23 lung = test system: NCI-H23 lung
NCI-H522 lung = test system: NCI-H522 lung
NCI/ADR-RES ovarian = test system: NCI/ADR-RES ovarian
OVCAR-3 ovarian = test system: OVCAR-3 ovarian
OVCAR-4 ovarian = test system: OVCAR-4 ovarian
OVCAR-5 ovarian = test system: OVCAR-5 ovarian
OVCAR-8 ovarian = test system: OVCAR-8 ovarian
PC-3 prostate = test system: PC-3 prostate
RPMI-8226 leukemia = test system: RPMI-8226 leukemia
RXF 393 renal = test system: RXF 393 renal
SF-268 CNS = test system: SF-268 CNS
SF-295 CNS = test system: SF-295 CNS
SF-539 CNS = test system: SF-539 CNS
SK-MEL-2 melanoma = test system: SK-MEL-2 melanoma
SK-MEL-28 melanoma = test system: SK-MEL-28 melanoma
SK-MEL-5 melanoma = test system: SK-MEL-5 melanoma
SK-OV-3 ovarian = test system: SK-OV-3 ovarian
SNB-19 CNS = test system: SNB-19 CNS
SNB-75 CNS = test system: SNB-75 CNS
SR leukemia = test system: SR leukemia
SW-620 colon = test system: SW-620 colon
T-47D breast = test system: T-47D breast
TK-10 renal = test system: TK-10 renal
U251 CNS = test system: U251 CNS
UACC-62 melanoma = test system: UACC-62 melanoma
UO-31 renal = test system: UO-31 renal
HCC-2998 colon = test system: HCC-2998 colon
NCI-H460 lung = test system: NCI-H460 lung
SN12C renal = test system: SN12C renal

COC(=O)C(NC(=O)C12CCC(C)(C(=O)O1)C2(C)C)c1cc(C(C)(C)C)c(O)c(C(C)(C)C)c1 (centres undefined)
32.1 µM: TGI (HL-60(TB) leukemia)
> 100 µM: TGI (786-0 renal) | TGI (A498 renal) | TGI (A549 NSCLC) | TGI (ACHN renal) | TGI (BT-549 breast) | TGI (CAKI-1 renal) | TGI (CCRF-CEM leukemia) | TGI (COLO 205 colon) | TGI (DU-145 prostate) | TGI (EKVX NSCLC) | TGI (HCT-116 colon) | TGI (HCT-15 colon) | TGI (HOP-62 NSCLC) | TGI (HOP-92 NSCLC) | TGI (HS 578T breast) | TGI (HT29 colon) | TGI (IGROV1 ovarian) | TGI (K-562 leukemia) | TGI (KM12 colon) | TGI (LOX IMVI melanoma) | TGI (M14 melanoma) | TGI (MALME-3M melanoma) | TGI (MCF7 breast) | TGI (MDA-MB-231 breast) | TGI (MDA-MB-435) | TGI (MOLT-4 leukemia) | TGI (NCI-H226 lung) | TGI (NCI-H23 lung) | TGI (NCI-H522 lung) | TGI (NCI/ADR-RES ovarian) | TGI (OVCAR-3 ovarian) | TGI (OVCAR-4 ovarian) | TGI (OVCAR-5 ovarian) | TGI (OVCAR-8 ovarian) | TGI (PC-3 prostate) | TGI (RPMI-8226 leukemia) | TGI (RXF 393 renal) | TGI (SF-268 CNS) | TGI (SF-295 CNS) | TGI (SF-539 CNS) | TGI (SK-MEL-2 melanoma) | TGI (SK-MEL-28 melanoma) | TGI (SK-MEL-5 melanoma) | TGI (SK-OV-3 ovarian) | TGI (SNB-19 CNS) | TGI (SNB-75 CNS) | TGI (SR leukemia) | TGI (SW-620 colon) | TGI (T-47D breast) | TGI (TK-10 renal) | TGI (U251 CNS) | TGI (UACC-62 melanoma) | TGI (UO-31 renal)

Cn1cc(-c2nonc2-c2cn(C)c3ccc(Br)cc23)c2ccccc21
5.46 µM: TGI (RXF 393 renal)
7.71 µM: TGI (SNB-75 CNS)
inactive: GI50 (786-0 renal) 6.18 µM | GI50 (A498 renal) 3.38 µM | GI50 (A549 NSCLC) 5.29 µM | GI50 (ACHN renal) 4.29 µM | GI50 (BT-549 breast) 6.17 µM | GI50 (CAKI-1 renal) 4.33 µM | GI50 (CCRF-CEM leukemia) 3.37 µM | GI50 (DU-145 prostate) 4.09 µM | GI50 (EKVX NSCLC) 3.82 µM | GI50 (HCC-2998 colon) 5.45 µM | GI50 (HCT-116 colon) 4.3 µM | GI50 (HCT-15 colon) 2170 nM | GI50 (HL-60(TB) leukemia) 2950 nM | GI50 (HOP-62 NSCLC) 5.51 µM | GI50 (HOP-92 NSCLC) 5.16 µM | GI50 (HT29 colon) 3.26 µM | GI50 (IGROV1 ovarian) 5.13 µM | GI50 (K-562 leukemia) 1080 nM | GI50 (KM12 colon) 2630 nM | GI50 (M14 melanoma) 3.93 µM | GI50 (MALME-3M melanoma) 4.86 µM | GI50 (MCF7 breast) 2830 nM | GI50 (MDA-MB-231 breast) 3.67 µM | GI50 (NCI-H226 lung) 4.61 µM | GI50 (NCI-H23 lung) 4.72 µM | GI50 (NCI-H460 lung) 3.31 µM | GI50 (NCI-H522 lung) 3.01 µM | GI50 (NCI/ADR-RES ovarian) 3.19 µM | GI50 (OVCAR-3 ovarian) 2800 nM | GI50 (OVCAR-4 ovarian) 5.95 µM | GI50 (OVCAR-5 ovarian) 7.05 µM | GI50 (OVCAR-8 ovarian) 5.14 µM | GI50 (PC-3 prostate) 4.06 µM | GI50 (RPMI-8226 leukemia) 3.32 µM | GI50 (RXF 393 renal) 1990 nM | GI50 (SF-268 CNS) 5.79 µM | GI50 (SF-295 CNS) 2890 nM | GI50 (SF-539 CNS) 2190 nM | GI50 (SK-MEL-2 melanoma) 3.36 µM | GI50 (SK-MEL-28 melanoma) > 100 µM | GI50 (SK-MEL-5 melanoma) 3.37 µM | GI50 (SK-OV-3 ovarian) 7.52 µM | GI50 (SN12C renal) 5.25 µM | GI50 (SNB-19 CNS) 5.33 µM | GI50 (SNB-75 CNS) 1770 nM | GI50 (SW-620 colon) 2530 nM | GI50 (TK-10 renal) 5.33 µM | GI50 (U251 CNS) 3.93 µM | GI50 (UACC-62 melanoma) 3.37 µM | GI50 (UO-31 renal) 3.39 µM
6.13 µM: TGI (SF-539 CNS)
> 100 µM: TGI (786-0 renal) | TGI (A498 renal) | TGI (A549 NSCLC) | TGI (ACHN renal) | TGI (BT-549 breast) | TGI (CAKI-1 renal) | TGI (CCRF-CEM leukemia) | TGI (DU-145 prostate) | TGI (EKVX NSCLC) | TGI (HCC-2998 colon) | TGI (HCT-116 colon) | TGI (HCT-15 colon) | TGI (HL-60(TB) leukemia) | TGI (HOP-62 NSCLC) | TGI (HOP-92 NSCLC) | TGI (HT29 colon) | TGI (IGROV1 ovarian) | TGI (K-562 leukemia) | TGI (KM12 colon) | TGI (M14 melanoma) | TGI (MALME-3M melanoma) | TGI (MCF7 breast) | TGI (MDA-MB-231 breast) | TGI (NCI-H226 lung) | TGI (NCI-H23 lung) | TGI (NCI-H460 lung) | TGI (NCI-H522 lung) | TGI (NCI/ADR-RES ovarian) | TGI (OVCAR-4 ovarian) | TGI (OVCAR-5 ovarian) | TGI (OVCAR-8 ovarian) | TGI (PC-3 prostate) | TGI (RPMI-8226 leukemia) | TGI (SF-268 CNS) | TGI (SF-295 CNS) | TGI (SK-MEL-2 melanoma) | TGI (SK-MEL-28 melanoma) | TGI (SK-MEL-5 melanoma) | TGI (SK-OV-3 ovarian) | TGI (SN12C renal) | TGI (SNB-19 CNS) | TGI (SW-620 colon) | TGI (TK-10 renal) | TGI (U251 CNS) | TGI (UACC-62 melanoma) | TGI (UO-31 renal)
8.61 µM: TGI (OVCAR-3 ovarian)
